Structures can show the parent of a compound that is named as a salt.
Biological target: T1, MST3 kinase domain (Homo sapiens, UniProt Q9Y6E0)
T1 construct: 5 μg/ml MST3 kinase domain; Met-Ser-Leu (vector-encoded residues) (N); Glu-Gly-His6 (C); made in house; host or cells: E. coli
Test: MST3 kinase assay (PK/LDH-coupled, loss of NADH at 340 nm)
Format: biochemical
Conditions: purified MST3 kinase domain 5 μg/ml, 10 μM ATP, 400 μM MST3 peptide, 1 mM MnCl2

T1 sequence (Q9Y6E0 36-286 limits assumed): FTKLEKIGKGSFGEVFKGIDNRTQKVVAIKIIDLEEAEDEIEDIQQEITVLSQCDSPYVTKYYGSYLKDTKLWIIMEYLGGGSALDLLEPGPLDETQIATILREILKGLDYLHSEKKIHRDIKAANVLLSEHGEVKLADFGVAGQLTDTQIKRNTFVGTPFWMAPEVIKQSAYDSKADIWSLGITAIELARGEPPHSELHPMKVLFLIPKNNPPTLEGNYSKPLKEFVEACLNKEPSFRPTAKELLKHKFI

| IC50 [µM] | Structure (SMILES) |
| --- | --- |
| 30 | O=S(=O)(NCCNCC=Cc1ccc(Br)cc1)c1cccc2cnccc12 [H89, N-[2-(p-Bromocinnamylamino)ethyl]-5-isoquinolinesulfonamide.2HCl] |
| 18 | O=S(=O)(c1cccc2c(Cl)cccc12)N1CCCNCC1 [ML-9, 1-(5-Chloronaphthalene-1-sulfonyl)-1H-hexahydro-1,4-diazepine.HCl] |

Reference: patent US20030225527A1, “Crystals and structures of MST3” (priority 2002, published 2003)
